Two compounds from ChEMBL document CHEMBL3774308, “KATching-Up on Small Molecule Modulators of Lysine Acetyltransferases” (J Med Chem, 2016) can be followed below.

Structures are written as SMILES.

One test deals with CREB-binding protein (Homo sapiens, UniProt Q92793). The test can be described thus: Inhibition of human CREBBP expressed in competent escherichia coli BL21(DE3)-R3-pRARE2 cells by isothermal titration calorimetry.
Test [1] addresses T1, Histone acetyltransferase p300 (Homo sapiens, UniProt Q09472). The test can be described thus: Inhibition of human p300 expressed in competent escherichia coli BL21(DE3)-R3-pRARE2 cells by isothermal titration calorimetry.
Test [2] concerns the target Histone acetyltransferase KAT2B (Homo sapiens, UniProt Q92831). The test is described as follows: Inhibition of PCAF (unknown origin) using N-terminal histone H3-20 peptide substrate incubated for 3.5 mins by liquid scintillation counting method in presence of [3H]acetyl-CoA.
Test [3] deals with Histone acetyltransferase KAT5 (Homo sapiens, UniProt Q92993). The test can be described thus: Inhibition of full length TIP60 (unknown origin) expressed in Escherichia coli using N-terminal histone H4-20 peptide substrate incubated for 10 mins by liquid scintillation counting method in presence of [3H]acetyl-CoA.
In test [4] the target is T2, Histone acetyltransferase ESA1 (Saccharomyces cerevisiae (strain ATCC 204508 / S288c) (Baker's yeast), UniProt Q08649).
T2 sequence (Q08649 whole entry): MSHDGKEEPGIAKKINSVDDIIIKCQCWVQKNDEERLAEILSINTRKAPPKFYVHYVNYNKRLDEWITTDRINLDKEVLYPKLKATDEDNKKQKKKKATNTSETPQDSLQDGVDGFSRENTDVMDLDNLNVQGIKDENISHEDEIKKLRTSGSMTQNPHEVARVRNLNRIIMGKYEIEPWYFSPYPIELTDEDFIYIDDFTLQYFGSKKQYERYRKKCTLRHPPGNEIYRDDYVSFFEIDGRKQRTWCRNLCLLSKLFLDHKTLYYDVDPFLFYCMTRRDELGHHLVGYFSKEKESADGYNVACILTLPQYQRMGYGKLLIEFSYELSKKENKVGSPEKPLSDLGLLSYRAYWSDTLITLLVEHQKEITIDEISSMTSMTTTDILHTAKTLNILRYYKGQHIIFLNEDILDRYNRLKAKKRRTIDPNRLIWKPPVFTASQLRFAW
The test is described as follows: Inhibition of yeast ESA1 using N-terminal histone H3 substrate by radiometric filter binding based […] in presence of [3H]acetyl-CoA.

The target of test [5] is T1, Histone acetyltransferase p300. The test is described as follows: Inhibition of p300 (unknown origin) using N-terminal histone H4-20 peptide substrate incubated for 10 mins by liquid scintillation counting method in presence of [14C]acetyl-CoA.

T1 sequence (Q09472 whole entry): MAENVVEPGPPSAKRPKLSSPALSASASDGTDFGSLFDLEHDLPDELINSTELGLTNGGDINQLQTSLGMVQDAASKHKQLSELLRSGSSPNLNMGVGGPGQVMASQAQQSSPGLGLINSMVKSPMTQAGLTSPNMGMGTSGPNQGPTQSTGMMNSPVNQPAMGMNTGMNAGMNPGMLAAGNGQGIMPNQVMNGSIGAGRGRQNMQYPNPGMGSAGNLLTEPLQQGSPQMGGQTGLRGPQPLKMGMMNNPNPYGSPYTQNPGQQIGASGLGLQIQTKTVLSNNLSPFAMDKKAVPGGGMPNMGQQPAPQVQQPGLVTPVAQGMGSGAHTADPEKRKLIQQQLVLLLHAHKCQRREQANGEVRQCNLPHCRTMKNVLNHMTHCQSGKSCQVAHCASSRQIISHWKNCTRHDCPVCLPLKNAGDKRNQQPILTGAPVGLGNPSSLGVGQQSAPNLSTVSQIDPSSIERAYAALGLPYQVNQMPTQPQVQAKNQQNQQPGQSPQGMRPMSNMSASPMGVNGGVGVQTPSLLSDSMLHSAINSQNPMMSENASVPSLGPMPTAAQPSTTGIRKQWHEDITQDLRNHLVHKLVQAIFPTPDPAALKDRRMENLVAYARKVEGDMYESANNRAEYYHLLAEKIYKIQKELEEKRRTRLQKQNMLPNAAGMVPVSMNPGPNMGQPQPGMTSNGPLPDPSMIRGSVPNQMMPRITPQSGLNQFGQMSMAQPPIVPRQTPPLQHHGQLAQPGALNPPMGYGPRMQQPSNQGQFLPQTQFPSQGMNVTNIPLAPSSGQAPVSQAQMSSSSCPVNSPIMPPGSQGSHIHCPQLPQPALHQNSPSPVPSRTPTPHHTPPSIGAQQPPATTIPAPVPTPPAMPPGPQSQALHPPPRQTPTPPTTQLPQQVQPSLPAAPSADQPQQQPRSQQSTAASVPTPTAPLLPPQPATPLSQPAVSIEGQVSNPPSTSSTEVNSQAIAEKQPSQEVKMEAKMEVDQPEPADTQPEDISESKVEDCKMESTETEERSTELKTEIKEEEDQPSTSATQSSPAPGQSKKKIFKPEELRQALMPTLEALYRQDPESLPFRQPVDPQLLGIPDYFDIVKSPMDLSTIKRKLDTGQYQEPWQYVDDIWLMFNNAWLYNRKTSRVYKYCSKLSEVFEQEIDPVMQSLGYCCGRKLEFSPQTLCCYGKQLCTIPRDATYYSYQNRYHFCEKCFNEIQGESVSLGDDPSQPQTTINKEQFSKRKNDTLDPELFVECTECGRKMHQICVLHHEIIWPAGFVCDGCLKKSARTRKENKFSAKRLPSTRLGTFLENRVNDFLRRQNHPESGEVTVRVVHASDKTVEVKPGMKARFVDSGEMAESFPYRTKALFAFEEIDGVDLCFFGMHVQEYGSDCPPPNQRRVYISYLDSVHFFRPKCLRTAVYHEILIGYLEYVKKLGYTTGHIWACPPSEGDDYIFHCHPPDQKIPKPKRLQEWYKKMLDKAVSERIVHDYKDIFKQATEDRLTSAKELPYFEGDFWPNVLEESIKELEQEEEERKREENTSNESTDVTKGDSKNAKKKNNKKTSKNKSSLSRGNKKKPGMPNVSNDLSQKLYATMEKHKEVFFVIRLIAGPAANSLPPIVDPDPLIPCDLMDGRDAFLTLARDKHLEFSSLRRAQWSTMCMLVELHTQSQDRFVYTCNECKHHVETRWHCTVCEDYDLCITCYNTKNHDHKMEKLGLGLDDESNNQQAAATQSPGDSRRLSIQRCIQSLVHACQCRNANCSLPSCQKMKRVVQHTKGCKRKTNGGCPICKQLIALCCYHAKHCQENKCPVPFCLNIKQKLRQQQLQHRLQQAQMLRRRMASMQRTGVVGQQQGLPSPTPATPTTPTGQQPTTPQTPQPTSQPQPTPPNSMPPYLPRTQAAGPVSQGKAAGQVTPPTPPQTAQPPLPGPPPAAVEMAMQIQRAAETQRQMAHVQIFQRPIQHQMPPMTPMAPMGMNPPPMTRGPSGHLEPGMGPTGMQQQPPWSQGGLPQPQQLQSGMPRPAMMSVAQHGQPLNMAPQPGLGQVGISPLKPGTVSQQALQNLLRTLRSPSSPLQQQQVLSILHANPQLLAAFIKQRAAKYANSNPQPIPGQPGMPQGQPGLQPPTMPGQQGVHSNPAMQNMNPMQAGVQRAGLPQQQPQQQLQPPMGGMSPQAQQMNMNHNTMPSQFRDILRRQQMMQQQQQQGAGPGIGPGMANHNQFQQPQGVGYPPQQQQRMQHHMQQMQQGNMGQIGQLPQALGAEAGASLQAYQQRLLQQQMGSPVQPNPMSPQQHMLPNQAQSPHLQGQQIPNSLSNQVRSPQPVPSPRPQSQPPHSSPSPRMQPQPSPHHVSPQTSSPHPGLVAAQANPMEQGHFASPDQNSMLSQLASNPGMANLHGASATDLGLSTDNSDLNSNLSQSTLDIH
Sequence of Histone acetyltransferase KAT5 (Q92993 whole entry): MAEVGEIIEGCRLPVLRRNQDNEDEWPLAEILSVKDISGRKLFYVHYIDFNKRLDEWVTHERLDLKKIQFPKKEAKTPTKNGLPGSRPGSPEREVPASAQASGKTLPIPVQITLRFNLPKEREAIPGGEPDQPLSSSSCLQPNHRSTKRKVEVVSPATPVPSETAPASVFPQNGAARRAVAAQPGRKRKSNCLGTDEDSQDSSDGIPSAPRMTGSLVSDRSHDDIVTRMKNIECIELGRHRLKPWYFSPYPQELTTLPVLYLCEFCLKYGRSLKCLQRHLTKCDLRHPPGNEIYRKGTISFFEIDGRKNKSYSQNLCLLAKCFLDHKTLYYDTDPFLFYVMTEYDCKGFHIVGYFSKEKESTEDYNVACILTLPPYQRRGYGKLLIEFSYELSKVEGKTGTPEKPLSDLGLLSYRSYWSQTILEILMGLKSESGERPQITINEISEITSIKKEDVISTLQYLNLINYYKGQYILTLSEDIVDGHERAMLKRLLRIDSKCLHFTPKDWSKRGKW
Sequence of Histone acetyltransferase KAT2B (Q92831 whole entry): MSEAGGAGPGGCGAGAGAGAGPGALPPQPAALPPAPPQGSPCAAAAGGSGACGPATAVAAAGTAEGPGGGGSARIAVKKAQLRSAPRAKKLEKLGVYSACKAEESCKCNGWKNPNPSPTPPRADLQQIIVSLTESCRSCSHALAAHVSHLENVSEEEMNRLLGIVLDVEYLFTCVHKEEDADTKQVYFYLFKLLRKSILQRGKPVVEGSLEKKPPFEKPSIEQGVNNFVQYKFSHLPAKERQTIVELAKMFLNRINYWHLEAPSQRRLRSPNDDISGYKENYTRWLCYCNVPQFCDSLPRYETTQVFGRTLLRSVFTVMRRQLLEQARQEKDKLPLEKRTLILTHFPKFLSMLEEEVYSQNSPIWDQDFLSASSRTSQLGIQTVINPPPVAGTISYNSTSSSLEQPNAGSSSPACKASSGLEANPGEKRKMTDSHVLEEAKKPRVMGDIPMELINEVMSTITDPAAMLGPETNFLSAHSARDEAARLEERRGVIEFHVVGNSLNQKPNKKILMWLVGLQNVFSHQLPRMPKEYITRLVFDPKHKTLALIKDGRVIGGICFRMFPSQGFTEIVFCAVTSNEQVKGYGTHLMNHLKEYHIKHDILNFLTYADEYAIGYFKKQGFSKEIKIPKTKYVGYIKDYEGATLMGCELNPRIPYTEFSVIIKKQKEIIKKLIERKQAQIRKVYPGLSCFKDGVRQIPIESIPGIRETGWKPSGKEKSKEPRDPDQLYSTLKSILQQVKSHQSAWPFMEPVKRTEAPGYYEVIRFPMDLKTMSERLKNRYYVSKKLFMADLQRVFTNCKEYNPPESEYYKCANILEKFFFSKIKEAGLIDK

Consider `CCC(=O)N1CCOc2c(cc(-c3ccc(OC)c(OC)c3)cc2OC[C@H]2CCCN(C)C2)C1`, for which the figures for the Kd (at CREB-binding protein; in test [1]) were 0.151 µM and 0.167 µM, respectively.
On to `COc1ccc(C2CC(c3cccs3)=NN2c2nc(-c3ccc(N4C(=O)c5ccccc5C4=O)cc3)cs2)cc1OC` (stereo unspecified), for which the IC50 in test [2] was greater than 100 µM; in test [3], 149 µM; in test [4], 190 µM; in test [5], 150 µM.
